A word on the IC50: it is the point on the concentration scale where inhibition reaches its midpoint. A low value points to greater potency.

Assay [1] deals with T1, Helix pomatia agglutinin (HPA) (Helix pomatia, UniProt Q2F1K8).
T1 sequence (Q2F1K8 20-121): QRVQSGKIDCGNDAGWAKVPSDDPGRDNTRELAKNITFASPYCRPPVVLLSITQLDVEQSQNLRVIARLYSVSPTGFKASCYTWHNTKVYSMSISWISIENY
The assay is described as follows: SPR competition assay. The assay is classed as binding. The following applies: 8 µM mIgA1κ as competed analyte, 25 °C; competitive.

Assay [2] relates to Helix aspersa agglutinin (HAA). In words: SPR competition assay. The assay is classed as binding, Cornu aspersum. The following applies: 8 µM mIgA1κ as competed analyte, 25 °C; competitive.

In the case of `CC(=O)N[C@H]1C(O)O[C@H](CO)[C@H](O)[C@@H]1O` (some centres unmarked) [GalNAc], the IC50 is 220 ± 20 µM in assay [1] and 81 ± 8 µM in assay [2].

The record behind these values is paper PMC3721678 (Biochemistry, 2010).
